Test results as given in patent US7595401B2, “Therapeutic compounds and their use in cancer” (Myriad Pharmaceuticals, Inc., priority 2006, dated 2009).
pIC50: −log10 of the molar value.

Target: purified human Hsp90
Test: Binding Assay: fluorescence polarization with BODIPY-labeled geldanamycin
Details: BODIPY-GM 10 nM, Hsp90 30 nM
How it was run: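 Compounds in 2% DMSO final compete with 10 nM BODIPY-GM for 30 nM purified human Hsp90, incubated overnight at room temperature in pH 7.3 HEPES buffer containing Na2MoO4 and DTT. Polarization (mP, ex/em 485/530) normalized to DMSO gives percent inhibition; autofluorescence-confounded data excluded.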

pIC50 | % Inhibition at 5 μM Compound Concentration [%] | Compound
6.10 | – | N#CC1CCN(CCn2c(Sc3cc4c(cc3Br)OCO4)nc3c(N)ncnc32)CC1 [Example 575, 1-(2-{6-Amino-8-[(6-bromo-1,3-benzodioxol-5-yl)thio]-9 H-purin-9-yl}ethyl)piperidine-4-carbonitrile]
– | 31 | N#CC1CCN(CCn2c(Sc3cc4c(cc3Br)OCO4)nc3ncnc(N)c32)CC1 [Example 576, 1-(2-{6-Amino-8-[(6-bromo-1,3-benzodioxol-5-yl)thio]-7 H-purin-7-yl}ethyl)piperidine-4 - carbonitrile]
6.85 | – | Nc1ncnc2c1nc(Sc1cc3c(cc1Br)OCO3)n2CCC1CCCN(CC(F)(F)F)C1 (stereo not shown) [Example 577, 8-[(6-Bromo-1,3-benzodioxol-5-yl)thio]-9-{2-[1-(2,2,2-trifluoroethyl)piperidin-3-yl]ethyl}-9 H-purin-6-amine]
6.26 | – | Cc1cc(=O)n(CCn2c(Sc3cc4c(cc3Br)OCO4)nc3c(N)ncnc32)c(=O)[nH]1 [Example 578, 3-(2-{6-amino-8-[(6-bromo-1,3-benzodioxol-5-yl)thio]-9 H-purin-9-yl}ethyl)-6-methylpyrimidine-2,4 (1 H,3 H)-dione]
6.51 | – | Nc1ncnc2c1nc(Sc1cc3c(cc1Br)OCO3)n2CCC1CCN(Cc2ccc(F)cc2)CC1 [Example 579, 8-[(6-Bromo-1,3-benzodioxol-5-yl)thio]-9-{2-[1-(4-fluorobenzyl)piperidin-4-yl]ethyl}-9 H-purin-6-amine]
6.62 | – | Nc1ncnc2c1nc(Sc1cc3c(cc1Br)OCO3)n2CCC1CCN(CC2CCCCC2)CC1 [Example 581, 8-[(6-Bromo-1,3-benzodioxol-5-yl)thio]-9-{2-[1-(cyclohexylmethyl)piperidin-4-yl]ethyl}-9 H-purin-6-amine]
6.05 | – | CC(C)N1CCC(CCn2c(Sc3cc4c(cc3Br)OCO4)nc3c(N)ncnc32)CC1 [Example 582, 8-[(6-Bromo-1,3-benzodioxol-5-yl)thio]-9-[2-(1-isopropylpiperidin-4-yl)ethyl]-9 H-purin-6-amine]
– | 55.00 | CC(C)N1CCC(CCn2c(Sc3cc4c(cc3Br)OCO4)nc3ncnc(N)c32)CC1 [Example 583, 8-[(6-Bromo-1,3-benzodioxol-5-yl)thio]-7-[2-(1-isopropylpiperidin-4-yl)ethyl]-7 H-purin-6-amine]
5.85 | – | Nc1ncnc2c1nc(Sc1cc3c(cc1Br)OCO3)n2CCN1CCCC1=O [Example 584, 1-(2-{6-Amino-8-[(6-bromo-1,3-benzodioxol-5-yl)thio]-9 H-purin-9-yl}ethyl)pyrrolidin-2-one]
6.22 | – | Nc1ncnc2c1nc(Sc1cc3c(cc1Br)OCO3)n2CCC1CCN(CC(F)(F)F)CC1 [Example 585, 8-[(6-Bromo-1,3-benzodioxol-5-yl)thio]-9-{2-[1-(2,2,2-trifluoroethyl)piperidin-4-yl]ethyl}-9 H-purin-6-amine]
6.35 | – | Nc1ncnc2c1nc(Sc1cc3c(cc1Br)OCO3)n2CCN1CCOC1=O [Example 586, 3-(2-{6-Amino-8-[(6-bromo-1,3-benzodioxol-5-yl)thio]-9 H-purin-9-yl}ethyl)-1,3-oxazolidin-2-one]
< 5.70 | – | Nc1ncnc2c1nc(Sc1cc3c(cc1Br)OCO3)n2CCC1CCCCN1CC1CCCCC1 (stereo not shown) [Example 588, 8-[(6-Bromo-1,3-benzodioxol-5-yl)thio]-9-{2-[1-(cyclohexylmethyl)piperidin-2-yl]ethyl}-9 H-purin-6-amine]
6.30 | – | COc1ccc(CN2CCCCC2CCn2c(Sc3cc4c(cc3Br)OCO4)nc3c(N)ncnc32)cc1 (stereo not shown) [Example 590, 8-[(6-Bromo-1,3-benzodioxol-5-yl)thio]-9-{2-[1-(4-methoxybenzyl)piperidin-2-yl]ethyl}-9 H-purin-6-amine]
< 5.30 | – | Nc1ncnc2c1nc(Sc1cc3c(cc1Br)OCO3)n2CCC1CCCCN1C(=O)OCc1ccccc1 (stereo not shown) [Example 592, Benzyl 2-(2-{6-amino-8-[(6-bromo-1,3-benzodioxol-5-yl)thio]-9 H-purin-9-yl}ethyl)piperidine-1-carboxylate]
6.57 | – | COc1ccc(CN2CCC(CCn3c(Sc4cc5c(cc4Br)OCO5)nc4c(N)ncnc43)CC2)cc1 [Example 594, 8-[(6-Bromo-1,3-benzodioxol-5-yl)thio]-9-{2-[1-(4-methoxybenzyl)piperidin-4-yl]ethyl}-9 H-purin-6-amine]
– | 43.00 | COc1ccc(CN2CCC(CCn3cnc(N)c4nc(Sc5cc6c(cc5Br)OCO6)nc3-4)CC2)cc1 [Example 595, 8-[(6-Bromo-1,3-benzodioxol-5-yl)thio]-3-{2-[1-(4-methoxybenzyl)piperidin-4-yl]ethyl}-3 H-purin-6-amine]
6.59 | – | Nc1ncnc2c1nc(Sc1cc3c(cc1Br)OCO3)n2CCC1CCN(Cc2ccccc2)CC1 [Example 599, 9-[2-(1-Benzylpiperidin-4-yl)ethyl]-8-[(6-bromo-1,3-benzodioxol-5-yl)thio]-9 H-purin-6-amine]

pIC50 | % Inhibition at 5 μM Compound Concentration [%] | Compound
< 5.10 | – | CC1(C)COC(CCn2c(Sc3cc4c(cc3Br)OCO4)nc3c(N)ncnc32)CN1 (stereo not shown) [Example 601, 8-[(6-Bromo-1,3-benzodioxol-5-yl)thio]-9-[2-(5,5-dimethylmorpholin-2-yl)ethyl]-9 H-purin-6-amine]
– | 31.00 | Nc1ncn(CCC2CCN(C=O)CC2)c2nc(Sc3cc4c(cc3Br)OCO4)nc1-2 [Example 602, 4-(2-{6-Amino-8-[(6-bromo-1,3-benzodioxol-5-yl)thio]-3 H-purin-3-yl}ethyl)piperidine-1-carbaldehyde]
– | 4.00 | Nc1ncn(CC[C@H]2CCCN(C=O)C2)c2nc(Sc3cc4c(cc3Br)OCO4)nc1-2 [Example 603, (3R)-3-(2-{6-Amino-8-[(6-bromo-1,3-benzodioxol-5-yl)thio]-3 H-purin-3-yl}ethyl)piperidine-1-carbaldehyde]
6.72 | – | Nc1ncnc2c1nc(Sc1cc3c(cc1Br)OCO3)n2CC[C@H]1CCCN(C=O)C1 [Example 604, (3R)-3-(2-{6-Amino-8-[(6-bromo-1,3-benzodioxol-5-yl)thio]-9 H-purin-9-yl}ethyl)piperidine-1-carbaldehyde]
7.25 | – | Nc1ncnc2c1nc(Sc1cc3c(cc1Br)OCO3)n2CCC1CC2CCC(C1)O2 (stereo not shown) [Example 605]
– | 49.00 | Nc1ncn(CCC2CC3CCC(C2)O3)c2nc(Sc3cc4c(cc3Br)OCO4)nc1-2 (stereo not shown) [Example 606]
7.21 | – | CC12CCC(CC(CCn3c(Sc4cc5c(cc4Br)OCO5)nc4c(N)ncnc43)C1)O2 (stereo not shown) [Example 607, 8-[(6-Bromo-1,3-benzodioxol-5-yl)thio]-9-{2-[1-methyl-8-oxabicyclo[3.2.1]oct-3-yl]ethyl}-9 H-purin-6-amine]
– | 5.00 | CC12CCC(CC(CCn3cnc(N)c4nc(Sc5cc6c(cc5Br)OCO6)nc3-4)C1)O2 (stereo not shown) [Example 608, 8-[(6-Bromo-1,3-benzodioxol-5-yl)thio]-3-{2-[1-methyl-8-oxabicyclo[3.2.1]oct-3-yl]ethyl}-3 H-purin-6-amine]
7.35 | – | Cn1nnnc1N1CCC(CCn2c(Sc3cc4c(cc3Br)OCO4)nc3c(N)ncnc32)CC1 [Example 609, 8-[(6-Bromo-1,3-benzodioxol-5-yl)thio]-9-{2-[1-(1-methyl-1 H-tetrazol-5-yl)piperidin-4-yl]ethyl}-9 H-purin-6-amine]
7.06 | – | CCn1nnnc1N1CCC(CCn2c(Sc3cc4c(cc3Br)OCO4)nc3c(N)ncnc32)CC1 [Example 610, 8-[(6-Bromo-1,3-benzodioxol-5-yl)thio]-9-{2-[1-(1-ethyl-1 H-tetrazol-5-yl)piperidin-4-yl]ethyl}-9 H-purin-6-amine]
– | 22.00 | CCn1nnnc1N1CCC(CCn2cnc(N)c3nc(Sc4cc5c(cc4Br)OCO5)nc2-3)CC1 [Example 611, 8-[(6-Bromo-1,3-benzodioxol-5-yl)thio]-3-{2-[1-(1-ethyl-1 H-tetrazol-5-yl)piperidin-4-yl]ethyl}-3 H-purin-6-amine]
6.64 | – | CC(C)n1nnnc1N1CCC(CCn2c(Sc3cc4c(cc3Br)OCO4)nc3c(N)ncnc32)CC1 [Example 612, 8-[(6-Bromo-1,3-benzodioxol-5-yl)thio]-9-{2-[1-(1-isopropyl-1 H-tetrazol-5-yl)piperidin-4-yl]ethyl}-9 H-purin-6-amine]
– | 15.00 | CC(C)n1nnnc1N1CCC(CCn2cnc(N)c3nc(Sc4cc5c(cc4Br)OCO5)nc2-3)CC1 [Example 613, 8-[(6-Bromo-1,3-benzodioxol-5-yl)thio]-3-{2-[1-(1-isopropyl-1 H-tetrazol-5-yl)piperidin-4-yl]ethyl}-3 H-purin-6-amine]
5.74 | – | CC(C)(C)n1nnnc1N1CCC(CCn2c(Sc3cc4c(cc3Br)OCO4)nc3c(N)ncnc32)CC1 [Example 614, 8-[(6-Bromo-1,3-benzodioxol-5-yl)thio]-9-{2-[1-(1-tert-butyl-1 H-tetrazol-5-yl)piperidin-4-yl]ethyl}-9 H-purin-6-amine]
– | 13.00 | CC(C)(C)n1nnnc1N1CCC(CCn2cnc(N)c3nc(Sc4cc5c(cc4Br)OCO5)nc2-3)CC1 [Example 615, 8-[(6-Bromo-1,3-benzodioxol-5-yl)thio]-3-{2-[1-(1-tert-butyl-1 H-tetrazol-5-yl)piperidin-4-yl]ethyl}-3 H-purin-6-amine]
7.05 | – | N=C(N)N1CCC(CCn2c(Sc3cc4c(cc3Br)OCO4)nc3c(N)ncnc32)CC1 [Example 616, 4-(2-{6-Amino-8-[(6-bromo-1,3-benzodioxol-5-yl)thio]-9 H-purin-9-yl}ethyl)piperidine-1-carboximidamide]
– | 83.00 | N=C(N)N1CCC(CCn2cnc(N)c3nc(Sc4cc5c(cc4Br)OCO5)nc2-3)CC1 [Example 617, 4-(2-{6-Amino-8-[(6-bromo-1,3-benzodioxol-5-yl)thio]-3 H-purin-3-yl}ethyl)piperidine-1-carboximidamide]
